Test results as given in US6420375B1, “Fused ring compounds, process for producing the same and use thereof” (Takeda Chemical Industries, Ltd., priority 1997, dated 2002).

What follows are molecules tested against T1, rat steroid C17-20-lyase (Rattus norvegicus, UniProt P11715) (assay: Assay of inhibitory activity on rat steroid C17-20-lyase in vitro). Conditions: testicular microsomes of male SD rats; 10 nM [1,2-3H]-17α-hydroxyprogesterone, NADPH; 7 min at 37° C.; concentration reducing products (testosterone and androstenedione) by 50%.
T1 construct: testicular microsomes were prepared by a series of centrifugation; from tissue; host or cells: testicular microsomes from 13-week old male SD rats
T1 sequence (P11715 1-507): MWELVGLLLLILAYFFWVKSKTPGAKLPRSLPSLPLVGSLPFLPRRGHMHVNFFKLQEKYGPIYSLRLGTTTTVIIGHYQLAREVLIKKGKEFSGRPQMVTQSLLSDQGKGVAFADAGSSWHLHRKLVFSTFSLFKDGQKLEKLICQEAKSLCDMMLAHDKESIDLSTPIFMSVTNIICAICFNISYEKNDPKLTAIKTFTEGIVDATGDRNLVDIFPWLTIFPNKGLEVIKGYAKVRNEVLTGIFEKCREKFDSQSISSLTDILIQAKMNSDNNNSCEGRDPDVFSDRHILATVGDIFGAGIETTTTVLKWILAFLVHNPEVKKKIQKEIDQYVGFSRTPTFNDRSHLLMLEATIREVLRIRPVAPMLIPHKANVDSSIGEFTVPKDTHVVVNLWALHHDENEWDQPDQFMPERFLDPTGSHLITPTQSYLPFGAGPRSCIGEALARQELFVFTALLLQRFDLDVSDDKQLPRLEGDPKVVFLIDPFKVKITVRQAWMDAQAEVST
Format: biochemical
Protocol: Assay of inhibitory activity on rat steroid C17-20-lyase in vitro
Inhibitory activity was determined according to the method described in The Prostate, vol.26, 140-150(1995) with some modifications.
Testes excised from 13-week old, male SD rats were homogenized, and testicular microsomes were prepared by a series of centrifugation. The microsome protein (7 μg/10 μl) was added to 10 μl of 100 mM phosphate buffer (pH 7.4) in which 10 nM (final concentration) [1,2-^3H]-17α-hydroxyprogesterone, NADPH, and test compounds were dissolved. The reaction mixture was incubated for 7 min at 37° C., terminated by addition of 40 μl of Ethyl acetate, and briefly centrifuged. The substrate and the products (testosterone and androstenedione) in the upper phase were separated by silica gel thin layer chromatography. Detection of the spots and measurement of the radioactivity were performed by a BAS 2000 Bioimage analyzer. The concentration of the test compounds necessary to reduce the concentration of the products by 50% (The concentration in the control group in which no test compound was added was taken as 100%) was calculated, and shown in Table 1.

SMILES	IC50 [nM]
C(=C\c1ccc2ccccc2c1)/Cn1ccnc1	26
C/C(=C\Cn1ccnc1)c1ccc2ccccc2c1	13
C/C(=C\c1ccc2ccccc2c1)Cn1ccnc1	20

Now from value to molecule:

IC50 [nM]	SMILES
100	C(=C\c1ccc2ccccc2c1)/Cc1cccnc1
190	C(=C\c1ccc2c(c1)CCCC2)/c1ccncc1
28	C/C(=C\Cn1ccnc1)c1ccc2c(c1)CCCC2
